# Experimental data: PubChem BioAssay (NCI)
# Where “and” joins values, the source holds several entries; their conditions need not be identical. Identical values can stand only once.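 Each compound was tested at five concentrations against cells in 96-well plates for 48 hours. At the GI50, growth is halved. TGI: total growth inhibition.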
# Tests used:
# Test in all cases: inhibition of tumour cell growth, NCI panel, 48 h
# HS 578T breast = tested on: HS 578T breast
# MOLT-4 leukemia = tested on: MOLT-4 leukemia
# T-47D breast = tested on: T-47D breast
# OVCAR-4 ovarian = tested on: OVCAR-4 ovarian
# PC-3 prostate = tested on: PC-3 prostate
# SR leukemia = tested on: SR leukemia
# A549 NSCLC = tested on: A549 NSCLC
# UACC-257 melanoma = tested on: UACC-257 melanoma
# HOP-62 NSCLC = tested on: HOP-62 NSCLC
# HCC-2998 colon = tested on: HCC-2998 colon
Compound,TGI (HS 578T breast) [µM],TGI (MOLT-4 leukemia),TGI (T-47D breast) [µM],TGI (OVCAR-4 ovarian) [µM],TGI (PC-3 prostate) [µM],TGI (SR leukemia) [µM],TGI (A549 NSCLC) [µM],TGI (UACC-257 melanoma) [µM],TGI (HOP-62 NSCLC) [µM],TGI (HCC-2998 colon) [µM],GI50 (HS 578T breast) [µM],GI50 (T-47D breast) [µM],GI50 (OVCAR-4 ovarian) [µM],GI50 (PC-3 prostate) [µM],GI50 (SR leukemia) [µM],GI50 (A549 NSCLC) [µM],GI50 (UACC-257 melanoma) [µM],GI50 (HOP-62 NSCLC) [µM],GI50 (HCC-2998 colon) [µM],GI50 (MOLT-4 leukemia) [µM]
CCOc1cc(C2CC(c3ccc(NS(=O)(=O)c4cc([N+](=O)[O-])ccc4C)cc3)=NN2c2ccc([N+](=O)[O-])cc2[N+](=O)[O-])ccc1O (stereo not given),57.4,> 100 µM,60.2,11,64.7,> 100,28.1,59.5,27.3,–,–,–,–,–,–,–,–,–,–,–
COc1cc2c(cc1OC)C(Cl)C(c1ccc(Cl)c(Cl)c1)=C2Cl (stereo not given),–,12.3 µM,–,–,–,–,–,–,–,–,–,–,–,–,–,–,–,–,–,–
CC1(C)CC(=O)c2c(nc3ccc4ccccc4c3c2-c2ccc(NC(=O)CCCCCCCCC(=O)Nc3ccc(-c4c5c(nc6ccc7ccccc7c46)CC(C)(C)CC5=O)cc3)cc2)C1,> 100,> 100 µM,> 100,–,> 100,> 100,> 100,> 100,> 100,–,–,–,–,–,–,–,–,–,–,–
COc1ccc(NC(C)=O)cc1N1C(=O)/C(=C\c2cc(OC)c(OC)c(OC)c2)SC1c1ccccc1 (stereo not given),–,65.6 µM,> 100,> 100,> 100,> 100,> 100,> 100,> 100,> 100,–,–,–,–,–,–,–,–,–,–
COc1ccc(-c2c(C#N)c(S)n(NS(=O)(=O)c3ccc(C)cc3)c(=O)c2C#N)cc1,–,34.3 µM,–,> 100,67.5,–,> 100,> 100,> 100,> 100,–,–,–,–,–,–,–,–,–,–
O=C(Cn1c(C(=O)/C=C/c2cccs2)nc2ccccc21)c1ccc(Cl)cc1,38.7,–,> 100,76.9,–,22,> 100,58.1,> 100,29.8,–,–,–,–,–,–,–,–,–,–
COc1ccc(-c2cc(-c3cc4cc(Br)ccc4nc3Cl)c(C#N)c(N)n2)cc1,> 12.5,> 12.5 µM,> 12.5,> 12.5,> 12.5,> 12.5,> 12.5,–,> 12.5,–,–,–,–,–,–,–,–,–,–,–
CCOC(=O)C(NC(=O)CC)(Nc1cc(C)on1)C(F)(F)F (stereo not given),> 100,> 100 µM,> 100,–,> 100,> 100,> 100,> 100,–,> 100,–,–,–,–,–,–,–,–,–,–
COc1ccccc1NC(=O)CC(=O)N1N=C(C)C(N=Nc2ccc(C(=O)O)cc2)C1=O (stereo not given),> 100,–,> 100,> 100,> 100,> 100,> 100,> 100,> 100,> 100,–,–,–,–,–,–,–,–,–,–
NNC(=O)Cn1c2ccc(Br)cc2c2nc3ccccc3nc21,–,> 100 µM,> 100,–,> 100,> 100,> 100,> 100,89.8,–,–,–,–,–,–,–,–,–,–,–
COc1ccc(-n2c(=O)n(C)c(=O)n2-c2ccc(OC)cc2)cc1,> 100,> 100 µM,> 100,–,> 100,> 100,> 100,> 100,> 100,–,–,–,–,–,–,–,–,–,–,–
CCOC(=O)c1cc2c3c(c(C(C)=O)c(O)c2[nH]1)N(CC(C)CC)CC3 (stereo not given),51.4,> 100 µM,92.6,> 100,> 100,> 100,> 100,> 100,–,–,–,–,–,–,–,–,–,–,–,–
Cc1cc(N2CCCC2)nc(N(CCNc2ccnc3cc(Cl)ccc23)Cc2ccco2)n1,69.3,–,6.5,> 100,> 100,4.67,> 100,> 100,30,56.7,6.6,2.39,3.22,2.84,1.8,5.9,10.8,5.64,4.58,–
COc1cc(C(C)c2cc3c(cc2OCCO)OCO3)cc(OC)c1OC (stereo not given),–,> 100 µM,–,> 100,–,0.932,> 100,> 100,> 100,> 100,–,–,–,–,–,–,–,–,–,–
COC(=O)c1cc2ccc(OC(C)=O)c(OC(C)=O)c2cn1,–,6.54 µM and 4.28 µM,–,30.6,50.9,6.98,43,29.2,42.7,44.6,–,–,–,–,–,–,–,–,–,2.22
CC1=NN(c2nc(N)nc(/C(C#N)=C/c3cccn3-c3cc(Cl)cc(Cl)c3)n2)C(C)(C)C1,> 100,–,> 100,> 100,> 100,> 100,> 100,> 100,67.3,> 100,–,–,–,–,–,–,–,–,–,–
CN(C)c1nc2oc(-c3ccccc3)c(-c3ccccc3)c2c2nnnn12,> 100,> 100 µM,> 100,> 100,–,> 100,> 100,> 100,–,> 100,–,–,–,–,–,–,–,–,–,–
CCCCCC(C)SC1(C(=O)OC)CC(OC(C)=O)C(NC(C)=O)C([C@H](OC(C)=O)[C@@H](COC(C)=O)OC(C)=O)O1 (stereo not given in full),97,> 100 µM,> 100,–,> 100,> 100,> 100,> 100,> 100,> 100,–,–,–,–,–,–,–,–,–,–
N#Cc1ccccc1-c1nc2c3c(c(N)ccc3n1)C(=O)c1ccccc1-2,> 100,> 100 µM,> 100,> 100,> 100,–,> 100,> 100,> 100,> 100,–,–,–,–,–,–,–,–,–,–
C[C@@H]1CC[C@H]2C(C(O)CCCCC(O)C3=C(C(F)(F)F)O[C@@H]4O[C@@]5(C)CC[C@H]6[C@H](C)CC[C@@H]3[C@@]46OO5)=C(C(F)(F)F)O[C@@H]3O[C@@]4(C)CC[C@@H]1[C@]32OO4 (stereo not given in full),> 100,> 100 µM,9.02,> 100,> 100,6.04,> 100,> 100,> 100,–,37.8,2.52,28.5,3.96,1.91,8.87,14.9,36.9,–,6.35
CN(C(=O)c1ccco1)C(=S)N1CCN(c2ccccc2)CC1,–,> 100 µM,–,> 100,–,> 100,> 100,> 100,> 100,–,–,–,–,–,–,–,–,–,–,–
COc1ccc(C(=O)Cc2ccc(Br)cc2)cc1OC,–,> 100 µM,–,> 100,–,> 100,> 100,> 100,> 100,> 100,–,–,–,–,–,–,–,–,–,–
